# Laboratory results taken from paper PMC9781117, “New 5-Aryl-1,3,4-Thiadiazole-Based Anticancer Agents: Design, Synthesis, In Vitro Biological Evaluation and In Vivo Radioactive Tracing Studies” (Pharmaceuticals, 2022).
# Tests used:
# lung A549 cancer cells = tested on: lung A549 cancer cells; design: method as in PMID 31313595; conditions: cited from earlier work
# [1] = tested on: cervical HeLa cancer cells; design: method as in PMID 31313595; conditions: cited from earlier work
# [2] = tested on: breast cancer MCF-7 cells; design: method as in PMID 31313595; conditions: cited from earlier work
# [3] = tested on: MCF-7 breast adenocarcinoma cells; test: MTT cytotoxicity assay, MCF-7; type: cell-based, human
# Experimental: (§1) The in vitro cytotoxicity of the synthesized 1,3,4-thiadiazole derivatives against breast adenocarcinoma cells (MCF-7) and human hepatocellular carcinoma (HepG2) cell lines were evaluated by the MTT assay, using 5-Fluorouracil (5-FU) as a positive control.
# (§2) Human hepatocellular carcinoma (HepG2) cells and breast adenocarcinoma (MCF7) cells were purchased from the American Type Culture Collection (ATCC, USA). Under 37 °C with 5% CO2 in a humid incubator, cells were propagated using RPMI supplemented with 10% fetal bovine serum (FBS) and 1% v/v penicillin-streptomycin.
# (§3) According to Tim Mosmann’s approach, an MTT assay was performed to assess the antiproliferative properties of the compounds. In short, HepG2 or MCF7 cells (0.5 × 105) were grown in flat-bottom 96-well microplates in 180 μL/well RPMI media supplemented with 10% fetal bovine serum, 2μmol/mL L-glutamine, 250 ng/mL fungizone, and 100 units/mL penicillin-streptomycin solutions at 37 °C in a CO2 incubator. Following incubation, 180 μL/well of the new serum-free medium was added to each well after the old media had been withdrawn. After that, cells were exposed to 20 μL of various concentrations of the compounds (50–0.75 μg/mL) and were incubated for 48 h at 37 °C in a humidified 5% CO2 environment. The MTT solution (20 µL/well) was added and incubated for a further 4 h. The plate was agitated at room temperature while acidified isopropanol (160 μL/well) was added to dissolve the formazan crystals. The absorbance at 570 nm was then determined photometrically using the microplate ELISA reader (FLUOstar Omega, BMG, Labtech, Germany). Graph-Pad PRISM version 6 was used to determine the IC50 for each compound.
# [4] = tested on: HepG2 human hepatocellular carcinoma cells; test: MTT cytotoxicity assay, HepG2; type: cell-based
# Experimental: as §1, §2, §3
# [5] = tested on: normal mammalian Vero cells; test: Cytotoxicity against normal Vero cells; type: cell-based; conditions: Chlorocebus sabaeus
# MCF-7 cells [6] = test: AO/EB fluorescent stain, apoptotic and necrotic cells, MCF-7; type: cell-based, human; conditions: MCF-7, IC50 concentration, 48 h, vs untreated control cells
# Experimental: Morphologically, there are three different modes of cell death: apoptosis, autophagy, and necrosis (types I, II, and III, respectively).
# Fluorescence labeling with acridine orange/ethidium bromide (AO/EB) was used to determine the ratio between apoptosis and necrosis to evaluate the mode of cell death. HepG2 and MCF-7 cells were seeded in six-well plates with DMEM media supplemented with 10% FBS and allowed to settle overnight at 37 °C with 5% CO2 in a humidified incubator. […] 5-FU was used as a positive standard for both cell lines. After incubation, cells were collected by trypsinization and stained using a dye solution of AO and EB in PBS (1:1) for 20 min. The cells were examined using fluorescence microscopy. Each sample had at least 500 counted cells, and the percentage of apoptotic or necrotic cells was determined by […] the number of apoptotic or necrotic cells by the total number of cells counted by 100. The experiment was performed three times in triplicate.
# MCF-7 cells [7] = test: Annexin V-FITC/PI flow cytometric apoptosis analysis, MCF-7; type: cell-based, human; conditions: MCF-7, IC50 concentration, 48 h
# Source text: Propidium iodide (PI) and annexin-V-FITC were used in a flow cytometric investigation on HepG2 and MCF-7 cells to better understand the manner of cell death caused by 4e and 4i, respectively. […] Apoptosis evasion is one of the hallmarks of cancer progression because the loss of apoptosis control prolongs cancer cell survival and allows for the accumulation of mutations that can promote angiogenesis and cell proliferation, disrupt differentiation, and increase invasiveness throughout tumor progression, thus one of the key purposes of apoptosis is to prevent cancer.
# The apoptotic activity of compounds 4e and 4i was measured using the annexin V fluorescein isothiocyanate (FITC)/propidium iodide (PI) apoptosis detection kit (BioVision, USA, Catalog #: K101-25) following the manufacturer’s instructions. […] Cells were collected by trypsinization, washed twice using PBS and then 1 × 10^5 cells were resuspended in PBS and stained for 15 min at room temperature in the dark with 5 µL Annexin V-FITC and 5 µL PI in 1x binding buffer. Annexin V-FITC binding was analyzed by a BD FACS Calibur flow cytometry (Ex = 488 nm; Em = 530 nm) using a FITC signal detector (FL1) and PI staining by the phycoerythrin emission signal detector (FL2).
# MCF-7 cells [8] = test: Cell cycle analysis by flow cytometry (PI), MCF-7; type: cell-based, human; conditions: MCF-7, IC50 concentration, 48 h, vs control, p < 0.05
# Experimental: The cell cycle is made up of several intricately linked processes that enable the cell to develop and multiply. In cancer, the genetic and epigenetic abnormalities in the cell cycle-related genes result in an unchecked proliferation of mutated cells and alteration of cell cycle progression. For further investigation of the inhibitory effects of 4e and 4i compounds on the proliferation of HepG2 and MCF-7 cells, respectively, we examined the cell cycle distribution and DNA content after 48 h of the treatment. […] Consequently, the arrest in the G2/M phase mediates apoptosis via a mitochondrial apoptotic pathway.
# Immediately after incubation, trypsinization was used to collect the cells, which were then washed twice with ice-cold PBS before being fixed in 70% (v/v) ethanol at […], re-suspended with 0.1 mg/mL RNase, stained with […] propidium iodide (PI), and incubated for 1 h. The DNA contents of the cells were then analyzed by flow cytometry using an FL2 (λex/em 493/636 nm) signal detector (Abcam, UK, ab139418).
# [9] = tested on: Bax/Bcl-2 ratio in MCF-7 cells; test: ELISA Bax/Bcl-2 ratio, MCF-7; type: cell-based, human; conditions: MCF-7, IC50, 48 h, compared to control and 5-FU treated cells
# Source text: (§4) The overexpression of antiapoptotic proteins, such as Bcl-2, and the underexpression of proapoptotic proteins, such as Bax, are two common ways that the apoptotic pathway is suppressed in cancer. […] Therefore, a rise in Bax expression and a decrease in Bcl-2 can trigger the apoptotic process and eradicate cancer cells. […] This in turn activates the intrinsic pathway of apoptosis; thus, we next examined their effect on caspase 9 levels. Caspases (cysteine aspartyl-specific proteases), a class of cysteine proteins that cleave target proteins, play a role in executing apoptosis. […] Moreover, we evaluated the effect of the two compounds on the vascular endothelial growth factor VEGF expression. VEGF is one of the pro-angiogenic proteins; upon binding to VEGF receptors in the endothelial cells, it activates phosphorylation, causing increased angiogenesis and resulting in abnormal vasculature in the tumor tissue.
# (§5) The protein levels of Bax, Bcl2, caspase 9, and VGEF were estimated using an ELISA assay. […] Cells from each group were scraped off and washed with PBS and then cell pellets were collected from each flask. […] The supernatants were then used for ELISA assays in accordance with the manufacturer’s instructions for the ELISA kits (Sunlong Biotech, China), and absorbance and calculations were carried out using an ELISA reader (FLUOstar Omega, BMG, Labtech, Germany).
# caspase 9 in MCF-7 cells = test: ELISA caspase 9 level, MCF-7; type: cell-based, human; conditions: MCF-7, IC50, 48 h
# Source text: as §4, §5
# VEGF in MCF-7 cells = test: ELISA VEGF level, MCF-7; type: cell-based, human; conditions: MCF-7, IC50, 48 h, compared to control and 5-FU treated cells
# Source text: as §4, §5
compound,measurement,setting,value
CC(C)(C)c1nc(NC(=O)CN2CCN(c3ccccc3)CC2)sc1Cc1ccc(Cl)cc1 [VII],IC50,lung A549 cancer cells,0.2 µM
same,IC50,[1],4.2 µM
CCN1CCN(CC(=O)Nc2nc(C(C)(C)C)c(Cc3ccc(Cl)cc3)s2)CC1 [VI],IC50,[2],12.5 µM
"O=C(CN1CCC(Cc2ccccc2)CC1)Nc1nnc(-c2ccc(Cl)cc2)s1 [Compound 4i, 2-(4-Benzylpiperidin-1-yl)-N-(5-(4-Chlorophenyl)-1,3,4-Thiadiazol-2-yl)Acetamide]",IC50,"[3]; Homo sapiens, MCF7, MTT, 48 h, means ± SD of three independent experiments",2.32 ± 0.21 µg/mL
same,SI Values MCF-7,"[3]; selectivity index, MCF-7 over normal Vero cells",36.70
same,IC50,"[4]; Homo sapiens, HepG2, MTT, 48 h, means ± SD of three independent experiments",6.51 ± 0.03 µg/mL
same,SI Values HepG2,"[4]; selectivity index, HepG2 over normal Vero cells",13.10
same,IC50,[5],85.29 ± 0.52 µg/mL
same,apoptosis and necrosis (AO/EB stain),MCF-7 cells [6],significantly enhanced apoptosis and necrosis
same,main mode of cell death (annexin-V/PI),MCF-7 cells [7],apoptosis
same,total cell death (annexin-V/PI),MCF-7 cells [7]; vs untreated cells,induced significant total cell death
same,cell cycle arrest,MCF-7 cells [8],induced a significant cell growth arrest for MCF-7 cells at the G2/M phase
same,Bax/Bcl-2 ratio,[9],significant increase
same,caspase 9 level,caspase 9 in MCF-7 cells,significantly enhanced
same,VEGF level,VEGF in MCF-7 cells,significantly suppressed
